Activity calls are given as the source filed them. The calls are words filed in the database; no cut-off is given here.
Key:
[1] = biological target: T1, L-cysteine:1D-myo-inositol 2-amino-2-deoxy-alpha-D-glucopyranoside ligase (Mycobacterium tuberculosis, UniProt P9WJM9); experiment: Inhibition of Mycobacterium tuberculosis recombinant MBP-tagged MshC assessed as formation of fluorescently labeled Cys-GlcN-Ins by HPLC
T1 sequence (P9WJM9 whole entry): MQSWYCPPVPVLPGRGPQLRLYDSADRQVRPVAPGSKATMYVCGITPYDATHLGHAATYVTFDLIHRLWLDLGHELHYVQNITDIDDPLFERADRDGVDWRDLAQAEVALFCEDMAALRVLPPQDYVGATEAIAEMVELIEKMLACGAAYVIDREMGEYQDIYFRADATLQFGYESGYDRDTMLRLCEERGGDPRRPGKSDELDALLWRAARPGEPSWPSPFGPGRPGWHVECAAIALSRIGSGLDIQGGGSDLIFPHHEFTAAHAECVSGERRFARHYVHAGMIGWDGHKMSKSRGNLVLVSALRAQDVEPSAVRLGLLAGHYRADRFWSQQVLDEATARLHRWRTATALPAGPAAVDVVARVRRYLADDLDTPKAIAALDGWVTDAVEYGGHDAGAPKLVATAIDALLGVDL

[2] = biological target: T2, L-cysteine:1D-myo-inositol 2-amino-2-deoxy-alpha-D-glucopyranoside ligase (Mycobacterium tuberculosis) (UniProt P9WJM9); experiment: Binding affinity to Mycobacterium tuberculosis recombinant MBP-tagged MshC by transferred NOESY analysis
T2 sequence (whole entry): T1 sequence (P9WJM9 whole entry)

[3] = biological target: T2, L-cysteine:1D-myo-inositol 2-amino-2-deoxy-alpha-D-glucopyranoside ligase (Mycobacterium tuberculosis); experiment: Binding affinity to Mycobacterium tuberculosis recombinant MBP-tagged MshC by STD-NMR analysis
[4] = biological target: T1, L-cysteine:1D-myo-inositol 2-amino-2-deoxy-alpha-D-glucopyranoside ligase; experiment: Binding affinity to Mycobacterium tuberculosis recombinant MBP-tagged MshC by isothermal titration calorimetry assay

SMILES | IC50 [1] | Activity [2] | Activity [3] | Kd [4]
C/C(=C\C(=O)OCCCCCCCCC(=O)O)C[C@@H]1OC[C@H](C[C@@H]2O[C@H]2[C@@H](C)[C@H](C)O)[C@@H](O)[C@H]1O [MUPIROCIN] | > 5 mM | – | – | –
N[C@H]1CCC[C@H]1C(=O)O | > 4 mM | – | – | –
Nc1ncnc2c1ncn2[C@@H]1O[C@H](COS(=O)(=O)NC(=O)[C@@H](N)CC(=O)O)[C@@H](O)[C@H]1O | 1.2 mM | inactive | inactive | –
C[C@@H]1Cc2c(Cl)cc(C(=O)N[C@@H](Cc3ccccc3)C(=O)O)c(O)c2C(=O)O1 [3R14S-OCHRATOXIN A] | 2.5 mM | – | – | –
Nc1ncnc2c1ncn2[C@@H]1O[C@H](COS(=O)(=O)NC(=O)[C@@H](N)CO)[C@@H](O)[C@H]1O | 5 mM | – | – | –
C[C@@H]1C[C@H](C)C[C@H](C)[C@@H](O)CC(=O)O[C@H]([C@@H]2CCC[C@H]2C(=O)O)C/C=C/C=C(/C#N)[C@H](O)[C@@H](C)C1 [BORRELIDIN] | > 2 mM | – | – | –
Nc1ncnc2c1ncn2[C@@H]1O[C@H](COS(=O)(=O)NC(=O)[C@@H](N)CS)[C@@H](O)[C@H]1O | 5e-05 mM | – | inactive | 48.5 nM

Source: ChEMBL document CHEMBL1759889, “Susceptibility and mode of binding of the Mycobacterium tuberculosis cysteinyl transferase mycothiol ligase to tRNA synthetase inhibitors” (Bioorg Med Chem Lett, 2011)
